Patent US10079346B2, “Heteroaromatic compounds for organic electronics” (BASF SE, priority 2014, dated 2018)
In brackets after ≈: the same amount, converted by molar mass. Where two headings read alike, the source gives them in different places.

Experiment: Solubility at 25° C. in organic solvents (Example 15)
Assay type: physicochemical
Conditions: organic solvent or mixture
[1] = chlorobenzene, clorobenzene, read-out: Solubility in clorobenzene
[2] = CHCl3, read-out: Solubility in CHCl3
[3] = DMF, read-out: Solubility in DMF
[4] = THF, read-out: Solubility in THF

Row | Structure (SMILES) | solubility [1] [µg/mL] | solubility [2] [µg/mL] | solubility [3] [µg/mL] | solubility [4] [µg/mL]
1 | CC(C)(C)OC(=O)n1c2c(c3c1=Nc1ccccc1S3)Sc1ccccc1N=2 [Compound 1a] | 5000 to 10000 (≈ 12.3 to 24.5 mM) | 5000 to 10000 (≈ 12.3 to 24.5 mM) | 1000 to 5000 (≈ 2.45 to 12.3 mM) | 1000 to 5000 (≈ 2.45 to 12.3 mM)
2 | CCCCCCCc1ccc2c(c1)N=c1c(c3c(n1C(=O)OC(C)(C)C)=Nc1cc(CCCCCCC)ccc1S3)S2 [Compound 1c] | > 10000 | > 10000 | < 1000 | > 10000
3 | CCCCCCCCCCCCc1ccc2c(c1)N=c1c(c3c(n1C(=O)OC(C)(C)C)=Nc1cc(CCCCCCCCCCCC)ccc1S3)S2 [Compound 1d] | > 10000 | > 10000 | > 10000 | > 10000
4 | c1ccc2c(c1)N=c1[nH]c3c(c1S2)Sc1ccccc1N=3 [Compound 2a, reference compound] | < 1000 | < 1000 | < 1000 | < 1000
